Among the data in patent US11834453B2, “Substituted pyrimido[5,4-d]pyrimidines as HER2 inhibitors” (Array BioPharma Inc., priority 2020, dated 2023) are IC50 values, retold here.

Read-outs that look alike come from different tables or passages of the source.

The target in assay [1] is ErbB2 insYVMA (HER2-YVMA, SEQ ID NO: 2) (Homo sapiens, UniProt P04626, INS775YVMA/P1170A). Description: biochemical. To be noted: ErbB2 insYVMA enzyme assay.
The next assay has as its target EGFR (Homo sapiens (Human), UniProt P00533). Description: ErbB enzyme assay (CisBio HTRF KinEASE-TK), Assay 3. In kind it is biochemical. The procedure: (§1) Compound potencies were determined using CisBio's HTRF Kinease-TK assay technology. The kinases were incubated with 250 nM TK-substrate biotin (CisBio, part of cat #62TK0PEC) at 1 mM ATP along with test compounds in a buffer consisting of 25 mM HEPES, pH 7.4, 10 mM MgCl2, 0.01% Triton X-100, and 2% DMSO in a volume of 8 μL. Compounds were prepared as a three-fold serial dilution in DMSO and added to the assay to give the appropriate final concentration. After 30-minute incubation at 22° C., the reaction was quenched by adding 8 μL of quench solution containing 62.5 nM Sa-XL665 and 0.25× TK-Ab-Cryptate in HTRF detection buffer (all from CisBio, part of cat #62TK0PEC). After a 1-hour incubation at 22° C., the extent of reaction was determined using a PerkinElmer EnVision multimode plate reader via HTRF dual wavelength detection, and the percent of control (POC) was calculated using a ratiometric emission factor. One hundred POC was determined using DMSO only samples (no compound present), and 0 POC was determined using pre-quenched control reactions. A 4-parameter logistic curve was fit to the POC values as a function of the concentration of compound, and the IC50 value was the point where the best-fit curve crossed 50 POC.
(§2) Enzyme lots and concentration used are in Table 2.

The target in assay [2] is ErbB2 with Exon 20 YVMA insertion (HER2-YVMA) (Homo sapiens (Human), UniProt P04626, INS775YVMA). In words: Cellular phosphorylation assay, constitutive ErbB2 phosphorylation (Y1196) in engineered NIH 3T3 cells, Assay 4. In kind it is cell-based. How it is done:
Serially diluted compounds were added to the plates for 1 hour at 37° C./5% CO2. EGFR WT cells were stimulated with 100 ng/ml rEGF for an additional 10 minutes at 37° C./5% CO2. After compound incubation, medium was removed from the cells, which were then fixed in 3.7% formaldehyde in PBS at room temperature for 20 minutes. Following a wash with PBS, cells were permeabilized with 100% methanol at room temperature for 10 minutes. Cells were then washed with PBS/0.05% Tween-20 and blocked with Odyssey blocking buffer (LI-COR Biosciences) for at least 1 hour at room temperature. Antibodies to phosphorylated ErbB2 (Y1196, Cell Signaling #6942) or phosphorylated EGFR (Y1068, Cell Signaling #3777) and GAPDH (Millipore #MAB374) were added to the cells in blocking buffer containing 0.05% azide and incubated overnight at 4° C. After washing with PBS/0.05° i° Tween-20, the cells were incubated with fluorescently labeled secondary anti-rabbit antibody (LiCOR, IRDye 800CW #926-32211) and anti-mouse antibody (Molecular Probes, Alexa Fluor 680 #A21058) for 1 hour at room temperature in the dark. Cells were then washed and analyzed for fluorescence at both wavelengths using the Odyssey Infrared Imaging System (LI-COR Biosciences). Phosphorylated ErbB2 and EGFR signal was normalized to GAPDH signal to generate curves and calculate IC50 values.

Another assay concerns the target EGFR wild type (EGFR WT) (Homo sapiens (Human), UniProt P00533). In words: Cellular phosphorylation assay, EGF-stimulated EGFR phosphorylation in engineered NIH 3T3 cells, Phospho-EGFR DuoSet IC ELISA, Assay 5. In kind it is cell-based. The procedure:
NIH 3T3 cells were engineered to express EGFR wild type (EGFR WT; Assay 5, no footnote) with constructs obtained from GenScript and grown in DMEM supplemented with 10% fetal bovine serum and 15 μg/ml blasticidin. Cells were plated in 96-well plates at 20,000 cells/well and allowed to attach overnight at 37° C./5% CO2. Serially diluted compounds were added to the plates for 1 hour at 37° C./5% CO2. EGFR WT cells were stimulated with 100 ng/ml rEGF for an additional 10 minutes at 37° C./5% CO2. After compound incubation, medium was removed from the cells, which were then lysed in 100 μL/well lysis buffer according to the manufacturer's protocol (R&D Systems, DYC1095, Human Phospho-EGFR DuoSet IC ELISA). Same protocol was followed to determine the total levels of phospho-EGFR by measuring the optical density of each well using a VersaMax microplate reader. Curves were then generated and IC50 values calculated.
On the technique in general: ELISA stands for enzyme-linked immunosorbent assay.

For a further assay, the target named is ErbB2 WT (Homo sapiens (Human), UniProt P04626). In words: ErbB enzyme assay (CisBio HTRF KinEASE-TK), Assay 2. In kind it is biochemical. How it is done: as §1, with “Compounds were prepared as a three-fold serial dilution in DMSO and added to the assay to give the appropriate final concentration.” left out, “reactions.” for “reactions. A 4-parameter logistic curve was fit to the POC values as a function of the concentration of compound, and the IC50 value was the point where the best-fit curve crossed 50 POC.”
as §2
Background: In TR-FRET formats the signal depends on donor and acceptor labels being close together.

Chain of ErbB2 insYVMA (HER2-YVMA, SEQ ID NO: 2) (P04626 with tags, fused parts or gaps INS775YVMA/P1170A limits assumed): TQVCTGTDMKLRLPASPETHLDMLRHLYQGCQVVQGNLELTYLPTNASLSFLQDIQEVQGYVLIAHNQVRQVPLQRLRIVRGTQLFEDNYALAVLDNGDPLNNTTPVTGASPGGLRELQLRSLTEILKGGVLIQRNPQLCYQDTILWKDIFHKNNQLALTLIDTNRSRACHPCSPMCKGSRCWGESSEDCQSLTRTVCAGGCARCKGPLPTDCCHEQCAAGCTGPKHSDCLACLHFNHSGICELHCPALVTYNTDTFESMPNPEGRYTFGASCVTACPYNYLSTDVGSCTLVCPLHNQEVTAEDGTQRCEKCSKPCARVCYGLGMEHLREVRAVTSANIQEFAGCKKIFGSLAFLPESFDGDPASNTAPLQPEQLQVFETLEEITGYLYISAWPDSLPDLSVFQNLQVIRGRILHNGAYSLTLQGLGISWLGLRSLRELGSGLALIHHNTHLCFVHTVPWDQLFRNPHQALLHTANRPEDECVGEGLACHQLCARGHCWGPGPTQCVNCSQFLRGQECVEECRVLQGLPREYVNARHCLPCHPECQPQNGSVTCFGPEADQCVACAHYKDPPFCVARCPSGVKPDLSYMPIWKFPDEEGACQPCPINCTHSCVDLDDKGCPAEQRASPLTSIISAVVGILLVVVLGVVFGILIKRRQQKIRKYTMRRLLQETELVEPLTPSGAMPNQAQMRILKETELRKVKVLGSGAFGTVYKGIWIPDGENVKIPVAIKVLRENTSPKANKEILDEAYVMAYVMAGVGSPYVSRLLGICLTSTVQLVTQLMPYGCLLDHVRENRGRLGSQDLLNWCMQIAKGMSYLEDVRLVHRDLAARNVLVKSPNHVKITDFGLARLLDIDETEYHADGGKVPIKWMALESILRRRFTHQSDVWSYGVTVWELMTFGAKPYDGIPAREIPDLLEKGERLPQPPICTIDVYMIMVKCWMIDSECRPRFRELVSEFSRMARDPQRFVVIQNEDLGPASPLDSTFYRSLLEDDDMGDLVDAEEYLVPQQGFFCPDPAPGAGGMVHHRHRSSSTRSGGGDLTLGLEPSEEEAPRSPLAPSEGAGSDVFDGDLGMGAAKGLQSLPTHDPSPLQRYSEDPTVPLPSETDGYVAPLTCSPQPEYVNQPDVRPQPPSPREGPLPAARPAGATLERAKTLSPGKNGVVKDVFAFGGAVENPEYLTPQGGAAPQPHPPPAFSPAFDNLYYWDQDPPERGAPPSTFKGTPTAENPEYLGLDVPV
Chain of EGFR wild type (EGFR WT) (P00533 25-1210): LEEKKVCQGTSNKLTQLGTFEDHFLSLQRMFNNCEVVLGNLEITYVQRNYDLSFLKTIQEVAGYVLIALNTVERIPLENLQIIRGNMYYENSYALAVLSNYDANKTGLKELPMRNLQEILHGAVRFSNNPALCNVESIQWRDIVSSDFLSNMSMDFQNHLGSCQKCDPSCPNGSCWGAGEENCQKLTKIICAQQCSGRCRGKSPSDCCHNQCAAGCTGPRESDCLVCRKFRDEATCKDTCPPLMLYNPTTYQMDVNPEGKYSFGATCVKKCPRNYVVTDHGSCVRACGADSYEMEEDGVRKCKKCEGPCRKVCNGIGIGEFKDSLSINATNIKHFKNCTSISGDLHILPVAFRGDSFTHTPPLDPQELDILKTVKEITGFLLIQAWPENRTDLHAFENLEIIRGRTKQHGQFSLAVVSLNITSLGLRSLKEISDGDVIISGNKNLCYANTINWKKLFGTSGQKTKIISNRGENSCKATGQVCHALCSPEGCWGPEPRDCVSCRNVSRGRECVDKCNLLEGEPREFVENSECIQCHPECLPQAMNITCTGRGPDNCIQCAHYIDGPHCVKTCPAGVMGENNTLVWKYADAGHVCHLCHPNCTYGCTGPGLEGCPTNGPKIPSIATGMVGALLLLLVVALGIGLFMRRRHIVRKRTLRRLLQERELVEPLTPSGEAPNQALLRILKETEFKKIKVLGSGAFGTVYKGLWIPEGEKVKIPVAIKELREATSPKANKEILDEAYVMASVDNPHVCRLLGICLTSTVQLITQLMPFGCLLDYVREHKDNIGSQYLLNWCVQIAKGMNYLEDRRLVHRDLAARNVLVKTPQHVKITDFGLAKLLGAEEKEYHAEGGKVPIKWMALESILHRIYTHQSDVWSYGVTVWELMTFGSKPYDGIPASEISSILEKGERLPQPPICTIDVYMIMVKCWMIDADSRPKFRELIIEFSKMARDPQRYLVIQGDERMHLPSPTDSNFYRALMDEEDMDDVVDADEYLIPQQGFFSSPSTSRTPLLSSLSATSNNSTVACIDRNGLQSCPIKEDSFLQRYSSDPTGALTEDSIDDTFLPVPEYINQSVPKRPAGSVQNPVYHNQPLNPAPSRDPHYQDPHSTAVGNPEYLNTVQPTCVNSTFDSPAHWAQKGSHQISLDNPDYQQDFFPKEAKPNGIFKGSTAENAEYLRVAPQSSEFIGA
Chain of EGFR (P00533 25-1210): as above
Chain of ErbB2 with Exon 20 YVMA insertion (HER2-YVMA) (P04626 other isoform, or with tags, fused parts or gaps ins YVMA behind 775): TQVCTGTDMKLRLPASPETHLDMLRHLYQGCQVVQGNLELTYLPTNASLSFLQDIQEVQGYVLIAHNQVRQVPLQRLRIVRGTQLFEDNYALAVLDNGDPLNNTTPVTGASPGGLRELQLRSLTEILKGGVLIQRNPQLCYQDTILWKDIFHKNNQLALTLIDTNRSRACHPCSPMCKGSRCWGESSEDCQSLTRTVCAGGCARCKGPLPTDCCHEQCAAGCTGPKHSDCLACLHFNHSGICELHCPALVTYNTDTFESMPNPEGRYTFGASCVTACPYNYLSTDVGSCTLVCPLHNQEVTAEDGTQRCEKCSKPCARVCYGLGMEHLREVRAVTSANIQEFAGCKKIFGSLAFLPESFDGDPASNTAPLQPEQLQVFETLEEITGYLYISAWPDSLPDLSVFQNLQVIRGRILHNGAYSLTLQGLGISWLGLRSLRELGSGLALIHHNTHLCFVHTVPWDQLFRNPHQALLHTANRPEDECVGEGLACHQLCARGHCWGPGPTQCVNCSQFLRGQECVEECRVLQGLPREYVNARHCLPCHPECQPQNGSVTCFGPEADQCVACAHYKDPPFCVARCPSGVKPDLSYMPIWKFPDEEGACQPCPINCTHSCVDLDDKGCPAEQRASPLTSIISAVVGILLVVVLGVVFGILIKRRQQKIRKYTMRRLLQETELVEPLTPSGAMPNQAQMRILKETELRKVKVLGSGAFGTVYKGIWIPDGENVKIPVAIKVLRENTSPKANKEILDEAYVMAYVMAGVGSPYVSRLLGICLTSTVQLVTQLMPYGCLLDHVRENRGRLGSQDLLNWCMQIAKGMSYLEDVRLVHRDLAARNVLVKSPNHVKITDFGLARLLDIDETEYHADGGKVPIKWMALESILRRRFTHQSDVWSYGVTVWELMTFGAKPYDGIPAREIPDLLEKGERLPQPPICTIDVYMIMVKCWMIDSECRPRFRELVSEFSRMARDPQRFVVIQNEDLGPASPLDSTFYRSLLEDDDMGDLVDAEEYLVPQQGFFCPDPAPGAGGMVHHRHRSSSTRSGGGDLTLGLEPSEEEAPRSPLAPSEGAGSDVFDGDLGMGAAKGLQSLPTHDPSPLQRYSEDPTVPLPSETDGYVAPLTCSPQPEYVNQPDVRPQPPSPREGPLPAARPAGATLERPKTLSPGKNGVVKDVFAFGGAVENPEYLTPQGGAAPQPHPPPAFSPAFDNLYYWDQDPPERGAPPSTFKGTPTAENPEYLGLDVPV

Usually IC50 stands for the concentration that gives 50% inhibition. `Cc1cc(Nc2ncnc3cnc(N4CCC[C@@]45CCOC5)nc23)ccc1Oc1ccc2c(c1)ncn2C` (racemic) [Example 115, rac-(R)—N-(3-methyl-4-((1-methyl-1H-benzo[d]imidazol-5-yl)oxy)phenyl)-6-(7-oxa-1-azaspiro[4.4]nonan-1-yl)pyrimido[5,4-d]pyrimidin-4-amine]: the IC50 is 52.4 nM in assay [1] (read-out: Assay 1 IC50); 2190 nM on EGFR; 15.6 nM in assay [2]; not below 5000 nM at EGFR wild type (EGFR WT); 56.7 nM against ErbB2 WT.
On to `Cc1cc(Nc2ncnc3cnc(N4CC[C@]45CCOC5)nc23)ccc1Oc1ccc2c(c1)ncn2C` (single isomer, unassigned) [Example 93b], for which the IC50 in assay [1] (read-out: Assay 1 IC50) is 16.2 nM; at EGFR, 1350 nM; in assay [2], 13.9 nM; on EGFR wild type (EGFR WT) it was not below 5000 nM; on ErbB2 WT it was 11.6 nM.
In the case of `CCOc1ncc2ncnc(Nc3ccc(Oc4ccc5c(c4)ncn5C)c(C)c3)c2n1` [Example 13, 6-ethoxy-N-(3-methyl-4-((1-methyl-1H-benzo[d]imidazol-5-yl)oxy)phenyl)pyrimido[5,4-d]pyrimidin-4-amine], the IC50 in assay [1] (read-out: Assay 1 IC50) was 35.1 nM; at EGFR, not below 10000 nM; in assay [2], 295 nM; at EGFR wild type (EGFR WT) it was not below 5000 nM.
Turning to `Cc1cc(Nc2ncnc3cnc(N4CCC5(CCOC5)C4)nc23)ccc1Oc1ccc2c(c1)ncn2C` (centres unmarked) [Example 15, N-(3-methyl-4-((1-methyl-1H-benzo[d]imidazol-5-yl)oxy)phenyl)-6-(2-oxa-7-azaspiro[4.4]nonan-7-yl)pyrimido[5,4-d]pyrimidin-4-amine], the IC50 in assay [1] (read-out: Assay 1 IC50) is 21.4 nM; on EGFR it was not below 10000 nM; in assay [2], 23.4 nM; on EGFR wild type (EGFR WT), not below 5000 nM; against ErbB2 WT, 51.1 nM.
For the compound `Cc1cc(Nc2ncnc3cnc(N4C[C@H]5CC[C@@H]4CO5)nc23)ccc1Oc1ccn2ncnc2c1` [Example 127, N-(4-([1,2,4]triazolo[1,5-a]pyridin-7-yloxy)-3-methylphenyl)-6-((1R,4R)-2-oxa-5-azabicyclo[2.2.2]octan-5-yl)pyrimido[5,4-d]pyrimidin-4-amine], the IC50 is 40.7 nM in assay [1] (read-out: Assay 1 IC50), not below 10000 nM against EGFR, 151 nM in assay [2] and not below 5000 nM against EGFR wild type (EGFR WT).
`Cc1cc(Nc2ncnc3cnc(N4CCC(S(C)(=O)=O)CC4)nc23)ccc1Oc1ccc2c(c1)ncn2C` [Example 224]: the IC50 against EGFR was not below 10000 nM; at EGFR wild type (EGFR WT), not below 5000 nM.
Consider `Cc1cc(Nc2ncnc3cnc(O[C@@H]4CNC[C@@H]4F)nc23)ccc1Oc1ccc2c(c1)ncn2C` [Example 283], for which the IC50 was 39.5 nM in assay [1] (read-out: Assay 1 IC50), not below 10000 nM against EGFR, 261 nM in assay [2] and 301 nM against ErbB2 WT.
Compound `Cc1cc(Nc2ncnc3cnc(N4CC[C@](C)(O)C4)nc23)ccc1Oc1ccc2c(c1)ncn2C` [Example 294] registered an IC50 on EGFR wild type (EGFR WT) not below 5000 nM.
At EGFR wild type (EGFR WT), `Cc1c(Oc2ccc3c(c2)ncn3C)ccc(Nc2ncnc3cnc(N4CC[C@](C)(O)C4)nc23)c1F` [Example 310] showed an IC50 not below 5000 nM.
`Cc1c(Oc2ccn3ncnc3c2)ccc(Nc2ncnc3cnc(N4C[C@@H]5C[C@H]4CO5)nc23)c1F` [Example 313]: the figures for the IC50 (against EGFR; in assay [2]; against EGFR wild type (EGFR WT)) were 4150 nM, 1760 nM and not below 5000 nM, respectively.
Regarding `Cc1cc(Nc2ncnc3cnc(N4CC(C(C)(C)O)C4)nc23)ccc1Oc1ccn2ncnc2c1` [Example 343], the IC50 in assay [1] (read-out: Assay 1 IC50) is 113 nM; in assay [2], 1490 nM; on EGFR wild type (EGFR WT), not below 5000 nM; on ErbB2 WT, 120 nM.
For `Cc1cc(Nc2ncnc3cnc(N4CCO[C@]5(CCOC5)C4)nc23)ccc1Oc1ccc2c(c1)ncn2C` [Example 357], the figures for the IC50 at EGFR and against EGFR wild type (EGFR WT) were not below 10000 nM and not below 5000 nM, respectively.
Take `Cc1cc(Nc2ncnc3cnc(N4CC[C@H]4C(F)F)nc23)ccc1Oc1ccc2c(c1)ncn2C` [Example 388]: the IC50 in assay [1] (read-out: Assay 1 IC50) is 62.1 nM; at EGFR, not below 10000 nM; in assay [2] it was 52.2 nM; on ErbB2 WT, 89.4 nM.
In the case of `Cc1cc(Nc2ncnc3cnc(N4CC[C@@H]4C(C)(C)O)nc23)ccc1Oc1ccc2c(c1)ncn2C` [Example 397], the IC50 in assay [1] (read-out: Assay 1 IC50) was 20.3 nM; against EGFR it was not below 10000 nM; in assay [2], 115 nM; against ErbB2 WT, 144 nM.
For `Cc1cc(Nc2ncnc3cnc(N4CC[C@H]4C(C)(C)O)nc23)ccc1Oc1ccc2c(c1)ncn2C` [Example 407] the same measures were 31.5 nM, not below 10000 nM, 84.1 nM and 117 nM.
The like results for `Cc1cc(Nc2ncnc3cnc(N4CCC5(COC5)C4)nc23)ccc1Oc1ccc2c(c1)ncn2C` [Example 422] were, in that order, 58.4 nM, not below 10000 nM, 96.7 nM and 93.2 nM.
For the compound `Cc1cc(Nc2ncnc3cnc(N4CCCCS4(=O)=O)nc23)ccc1Oc1ccc2c(c1)ncn2C` [Example 437], the IC50 is 40.8 nM in assay [1] (read-out: Assay 1 IC50), not below 10000 nM on EGFR, 95.8 nM in assay [2] and 146 nM against ErbB2 WT.
On to `C[C@@H]1CN(c2ncc3ncnc(Nc4ccc(Oc5ccc6c(c5)ncn6C)c(Cl)c4)c3n2)CCN1C` [Example 439], for which the IC50 in assay [1] (Assay 1 IC50 (nM)) is 38.7 nM; in assay [2], 45.3 nM; against EGFR wild type (EGFR WT) it was not below 5000 nM; against ErbB2 WT, 70 nM.
Turning to `Cc1c(Oc2ccc3c(c2)ncn3C)ccc(Nc2ncnc3cnc(N4CC5CC4CO5)nc23)c1F` (centres unmarked) [Example 454], the IC50 in assay [1] (read-out: Assay 1 IC50) came to 15.3 nM; on EGFR, 4110 nM; in assay [2], 54.7 nM; against ErbB2 WT, 48.1 nM.
`Cc1cc(Nc2ncnc3cnc(N4CCC5COCC54)nc23)ccc1Oc1ccc2c(c1)ncn2C` (centres unmarked) [Example 472]: the IC50 on EGFR wild type (EGFR WT) is not below 5000 nM.
With `Cc1cc(Nc2ncnc3cnc(N(C)[C@@H]4CCCOC4)nc23)ccc1Oc1ccc2c(c1)ncn2C` [Example 473], the IC50 on EGFR is 1530 nM; in assay [2], 5.8 nM; against EGFR wild type (EGFR WT), not below 5000 nM.
As to `Cc1cc(Nc2ncnc3cnc(N4CC[Si](C)(C)CC4)nc23)ccc1Oc1ccc2c(c1)ncn2C` [Example 474], the IC50 in assay [1] (Assay 1 IC50 (nM)) was 254 nM; at EGFR it was not below 10000 nM; in assay [2], 559 nM; against ErbB2 WT, 727 nM.
As for `Cc1cc(Nc2ncnc3cnc(OCC(C)(C)O)nc23)ccc1Oc1ccc2c(c1)ncn2C` [Example 476], the IC50 is 39.5 nM in assay [1] (read-out: Assay 1 IC50), not below 10000 nM against EGFR, 155 nM in assay [2] and 232 nM on ErbB2 WT.
